Patent publication US4388311A, “Method for the induction of menses” (G. D. Searle & Co., priority 1982, dated 1983)
Several values for one entry are separate records, joined by “and”; a condition that tells them apart may be missing. Equal values may be shown once.

Experiments:
Type in all cases: in vivo, rat
pregnancy in rats [1] = experiment: Pregnancy termination in rats, compounds administered intragastrically on day 10 of pregnancy (Table 3); settings: for Serum Progesterone (Percent Control) / Serum Progesterone ng/ml + S.E.: serum day 11, 24 hours after injection; for Adrenal Wt. mg + SE / Fetal Viability: Normal Fetuses/Implantation Sites / Fetal Viability: Normal Fetuses/Implantation Sites (Percent) / Number of Rats Pregnant/Number of Rats Treated / Number of Rats Pregnant/Number of Rats Treated (Percent): autopsy day 14
Method: (§1) The following tables list the results for a compound of Formula IV as compared with a control of previously known 2α-cyano-17β-hydroxy-3-oxo-4,4,17α-trimethylandrost-5-end(Cyanoketone) for termination of pregnancy.
(§2) ^1 Compounds were administered intragastrically once daily on days 10
of pregnancy in a vehicle consisting of PEG400, propylene glycol and 100
percent ethanol (50:40:10, v:v:v). Serum for progesterone determination
was drawn on day 11 of pregnancy, 24 hours after the initial injection of
(§3) compound. The animals were autopsied on day 14 of pregnancy.

pregnancy in rats [2] = experiment: Pregnancy termination in rats, compounds administered intragastrically for four days (Table 1); settings: for Serum Progesterone (Percent Control) / Serum Progesterone ng/ml + S.E.: serum day 11, 24 hours after initial injection; for Adrenal Wt. mg + SE / Fetal Viability: Normal Fetuses/Implantation Sites / Fetal Viability: Normal Fetuses/Implantation Sites (Percent) / Number of Rats Pregnant/Number of Rats Treated / Number of Rats Pregnant/Number of Rats Treated (Percent): autopsy day 14
Method: as §1, §2
through 13 of pregnancy in a vehicle consisting of PEG400, propylene
glycol and 100 percent ethanol (50:40:10, v:v:v). Serum for progesterone
determination was drawn on day 11 of pregnancy, 24 hours after the initia
injection of compound. The animals were autopsied on day 14 of pregnancy.

pregnancy in rats [3] = experiment: Termination of pregnancy in rats, compounds administered subcutaneously (Table 2); settings: for Serum Progesterone (Percent Control) / Serum Progesterone ng/ml + S.E.: serum day 11, 24 hours after initial injection
Method: as §1
^1 Compounds given subcutaneously in corn oil vehicle once daily on
days 10 through 13 of pregnancy. Serum for progesterone determination was
drawn on day 11 of pregnancy, 24 hours after the initial injection of
as §3
^2 Serum progesterone values determined by RIA at Interlab Associates

[4] = 4 mg/kg intragastrically on day 10 of pregnancy
[5] = 4 mg/kg intragastrically once on day 10 of pregnancy
[6] = 8 mg/kg intragastrically on day 10 of pregnancy
[7] = 8 mg/kg intragastrically once on day 10 of pregnancy
[8] = 16 mg/kg intragastrically on day 10 of pregnancy
[9] = 16 mg/kg intragastrically once on day 10 of pregnancy
[10] = 2 mg/kg/day intragastrically days 10-13 of pregnancy
[11] = 2 mg/kg/day intragastrically once daily days 10-13 of pregnancy
[12] = 4 mg/kg/day intragastrically days 10-13 of pregnancy
[13] = 4 mg/kg/day intragastrically once daily days 10-13 of pregnancy
[14] = 8 mg/kg/day intragastrically days 10-13 of pregnancy
[15] = 8 mg/kg/day intragastrically once daily days 10-13 of pregnancy
[16] = 16 mg/kg/day intragastrically days 10-13 of pregnancy
[17] = 16 mg/kg/day intragastrically once daily days 10-13 of pregnancy
[18] = 2 mg/kg/day subcutaneously days 10-13 of pregnancy
[19] = 2 mg/kg/day subcutaneously in corn oil once daily days 10-13 of pregnancy, autopsy day 14
[20] = 4 mg/kg/day subcutaneously days 10-13 of pregnancy
[21] = 4 mg/kg/day subcutaneously in corn oil once daily days 10-13 of pregnancy, autopsy day 14
[22] = 8 mg/kg/day subcutaneously days 10-13 of pregnancy
[23] = 8 mg/kg/day subcutaneously in corn oil once daily days 10-13 of pregnancy, autopsy day 14
[24] = 16 mg/kg/day subcutaneously days 10-13 of pregnancy, 16 mg/kg/day
[25] = 16 mg/kg/day subcutaneously in corn oil once daily days 10-13 of pregnancy, autopsy day 14
[26] = 16 mg/kg/day subcutaneously in corn oil once daily days 10-13 of pregnancy, autopsy day 14, 16 mg/kg/day

What does the source list for CC(=O)OC1=C(C#N)C[C@@]2(C)C(=CC[C@@H]3[C@@H]2CC[C@@]2(C)[C@H]3CC[C@]2(C)O)C1(C)C [3-(acetyloxy)-17β-hydroxy-4,4,17α-trimethylandrosta-2,5-diene-2-carbonitrile]?
Serum Progesterone (Percent Control) (pregnancy in rats [1]; [4]): 33 Percent Control; Serum Progesterone ng/ml + S.E. (pregnancy in rats [1]; [4]): 19.0 + 7.4 ng/ml; Adrenal Wt. mg + SE (pregnancy in rats [1]; [5]): 60.0 + 4.2 mg; Fetal Viability: Normal Fetuses/Implantation Sites (pregnancy in rats [1]; [5]): 6/82; Fetal Viability: Normal Fetuses/Implantation Sites (Percent) (pregnancy in rats [1]; [5]): 7%; Number of Rats Pregnant/Number of Rats Treated (pregnancy in rats [1]; [5]): 1/8; Number of Rats Pregnant/Number of Rats Treated (Percent) (pregnancy in rats [1]; [5]): 13%; Serum Progesterone (Percent Control) (pregnancy in rats [1]; [6]): 18 Percent Control; Serum Progesterone ng/ml + S.E. (pregnancy in rats [1]; [6]): 10.4 + 2.5 ng/ml; Adrenal Wt. mg + SE (pregnancy in rats [1]; [7]): 62.0 + 2.5 mg; Fetal Viability: Normal Fetuses/Implantation Sites (pregnancy in rats [1]; [7]): 0/81; Fetal Viability: Normal Fetuses/Implantation Sites (Percent) (pregnancy in rats [1]; [7]): 0%; Number of Rats Pregnant/Number of Rats Treated (pregnancy in rats [1]; [7]): 0/7; Number of Rats Pregnant/Number of Rats Treated (Percent) (pregnancy in rats [1]; [7]): 0%; Serum Progesterone (Percent Control) (pregnancy in rats [1]; [8]): 24 Percent Control; Serum Progesterone ng/ml + S.E. (pregnancy in rats [1]; [8]): 13.8 + 1.7 ng/ml; Adrenal Wt. mg + SE (pregnancy in rats [1]; [9]): 56.8 + 2.0 mg; Fetal Viability: Normal Fetuses/Implantation Sites (pregnancy in rats [1]; [9]): 0/60; Fetal Viability: Normal Fetuses/Implantation Sites (Percent) (pregnancy in rats [1]; [9]): 0%; Number of Rats Pregnant/Number of Rats Treated (pregnancy in rats [1]; [9]): 0/6; Number of Rats Pregnant/Number of Rats Treated (Percent) (pregnancy in rats [1]; [9]): 0%; Serum Progesterone (Percent Control) (pregnancy in rats [2]; [10]): 109 Percent Control; Serum Progesterone ng/ml + S.E. (pregnancy in rats [2]; [10]): 49.6 + 6.2 ng/ml; Adrenal Wt. mg + SE (pregnancy in rats [2]; [11]): 68.9 + 2.2 mg; Fetal Viability: Normal Fetuses/Implantation Sites (pregnancy in rats [2]; [11]): 60/89; Fetal Viability: Normal Fetuses/Implantation Sites (Percent) (pregnancy in rats [2]; [11]): 67%; Number of Rats Pregnant/Number of Rats Treated (pregnancy in rats [2]; [11]): 7/9; Number of Rats Pregnant/Number of Rats Treated (Percent) (pregnancy in rats [2]; [11]): 78%; Serum Progesterone (Percent Control) (pregnancy in rats [2]; [12]): 29 Percent Control; Serum Progesterone ng/ml + S.E. (pregnancy in rats [2]; [12]): 13.4 + 3.9 ng/ml; Adrenal Wt. mg + SE (pregnancy in rats [2]; [13]): 68.6 + 2.3 mg; Fetal Viability: Normal Fetuses/Implantation Sites (pregnancy in rats [2]; [13]): 0/112; Fetal Viability: Normal Fetuses/Implantation Sites (Percent) (pregnancy in rats [2]; [13]): 0%; Number of Rats Pregnant/Number of Rats Treated (pregnancy in rats [2]; [13]): 0/10; Number of Rats Pregnant/Number of Rats Treated (Percent) (pregnancy in rats [2]; [13]): 0%; Serum Progesterone (Percent Control) (pregnancy in rats [2]; [14]): 40 Percent Control; Serum Progesterone ng/ml + S.E. (pregnancy in rats [2]; [14]): 18.1 + 2.5 ng/ml; Adrenal Wt. mg + SE (pregnancy in rats [2]; [15]): 70.3 + 3.1 mg; Fetal Viability: Normal Fetuses/Implantation Sites (pregnancy in rats [2]; [15]): 0/95; Fetal Viability: Normal Fetuses/Implantation Sites (Percent) (pregnancy in rats [2]; [15]): 0%; Number of Rats Pregnant/Number of Rats Treated (pregnancy in rats [2]; [15]): 0/10; Number of Rats Pregnant/Number of Rats Treated (Percent) (pregnancy in rats [2]; [15]): 0%; Serum Progesterone (Percent Control) (pregnancy in rats [2]; [16]): 29 Percent Control; Serum Progesterone ng/ml + S.E. (pregnancy in rats [2]; [16]): 13.4 + 2.0 ng/ml; Adrenal Wt. mg + SE (pregnancy in rats [2]; [17]): 72.1 + 2.1 mg; Fetal Viability: Normal Fetuses/Implantation Sites (pregnancy in rats [2]; [17]): 0/111; Fetal Viability: Normal Fetuses/Implantation Sites (Percent) (pregnancy in rats [2]; [17]): 0%; Number of Rats Pregnant/Number of Rats Treated (pregnancy in rats [2]; [17]): 0/10; Number of Rats Pregnant/Number of Rats Treated (Percent) (pregnancy in rats [2]; [17]): 0%; Serum Progesterone (Percent Control) (pregnancy in rats [3]; [18]): 91 Percent Control; Serum Progesterone ng/ml + S.E. (pregnancy in rats [3]; [18]): 52.3 + 2.8 ng/ml; Adrenal Wt. mg + SE (pregnancy in rats [3]; [19]): 81.2 + 3.2 mg; Fetal Viability: Normal Fetuses/Implantation Sites (pregnancy in rats [3]; [19]): 101/109; Fetal Viability: Normal Fetuses/Implantation Sites (Percent) (pregnancy in rats [3]; [19]): 93%; Number of Rats Pregnant/Number of Rats Treated (pregnancy in rats [3]; [19]): 9/9; Number of Rats Pregnant/Number of Rats Treated (Percent) (pregnancy in rats [3]; [19]): 100%; Serum Progesterone (Percent Control) (pregnancy in rats [3]; [20]): 32 Percent Control; Serum Progesterone ng/ml + S.E. (pregnancy in rats [3]; [20]): 14.2 + 4.9 ng/ml; Adrenal Wt. mg + SE (pregnancy in rats [3]; [21]): 72.9 + 3.8 mg; Fetal Viability: Normal Fetuses/Implantation Sites (pregnancy in rats [3]; [21]): 21/72; Fetal Viability: Normal Fetuses/Implantation Sites (Percent) (pregnancy in rats [3]; [21]): 29%; Number of Rats Pregnant/Number of Rats Treated (pregnancy in rats [3]; [21]): 2/7; Number of Rats Pregnant/Number of Rats Treated (Percent) (pregnancy in rats [3]; [21]): 29%; Serum Progesterone (Percent Control) (pregnancy in rats [3]; [22]): 29 Percent Control; Serum Progesterone ng/ml + S.E. (pregnancy in rats [3]; [22]): 12.7 + 1.4 ng/ml; Adrenal Wt. mg + SE (pregnancy in rats [3]; [23]): 83.9 + 2.0 mg; Fetal Viability: Normal Fetuses/Implantation Sites (pregnancy in rats [3]; [23]): 0/112; Fetal Viability: Normal Fetuses/Implantation Sites (Percent) (pregnancy in rats [3]; [23]): 0%; Number of Rats Pregnant/Number of Rats Treated (pregnancy in rats [3]; [23]): 0/9; Number of Rats Pregnant/Number of Rats Treated (Percent) (pregnancy in rats [3]; [23]): 0%; Serum Progesterone (Percent Control) (pregnancy in rats [3]; [24]): 26 Percent Control and 36 Percent Control; Serum Progesterone ng/ml + S.E. (pregnancy in rats [3]; [24]): 13.1 + 1.4 ng/ml and 15.7 + 2.8 ng/ml; Fetal Viability: Normal Fetuses/Implantation Sites (Percent) (pregnancy in rats [3]; [25]): 0%; Number of Rats Pregnant/Number of Rats Treated (pregnancy in rats [3]; [25]): 0/8; Number of Rats Pregnant/Number of Rats Treated (Percent) (pregnancy in rats [3]; [25]): 0%; Adrenal Wt. mg + SE (pregnancy in rats [3]; [26]): 93.8 + 4.9 mg and 98.3 + 2.8 mg; Fetal Viability: Normal Fetuses/Implantation Sites (pregnancy in rats [3]; [26]): 0/98 and 0/84
